The values that follow come from patent US20240306641A1, “P-BOOSTER” (EUROCHEM ANTWERPEN, priority 2021, published 2024).

Assay [1] deals with SPX1 phosphate starvation biomarker (pSPX1::GUS). In words: Chemical activity assessment: SPX1 suppression in Arabidopsis pSPX1::GUS reporter line (GUS stained area). The assay is classed as in vivo, Arabidopsis thaliana. Particulars: 50 μM compound, low phosphate modMS liquid medium, 96-well, 7 days after germination; low phosphate control of same plate. The procedure:
(§1) All Arabidopsis plant experiments were performed using the Arabidopsis thaliana Columbia-0 background. The Arabidopsis pSPX1::GUS line is described in the […] 2008, 54: 965-975. For rice, the cultivar Nipponbare was used. For maize, the cultivars DKC 2931 and 8104 were used for regular pot experiments and sand-based pot experiments, respectively. For soybean, the cultivar Primus was used. […] The medium was solidified due to the addition of 0.6% Gelrite, unless stated otherwise. In case of vertical plates (root length and root hair measurements), the medium was supplied with 0.5% of sucrose and 1 μM (low phosphate, 1 μM KH2PO4, 9.9 mM KCl), 10 μM (low phosphate 10 μM KH2PO4, 9.9 mM KCl) or 1.25 mM KH2PO4 (high phosphate). Arabidopsis seeds were stratified for 2 days at 4° C. before germination. Seedlings were germinated in climate-controlled growth chambers at 22° C. under continuous light ([…] m^−2 s^−1). Husked rice seeds were germinated on wetted Whatman paper for 2 days at 37° C. and then transferred to Sterivent boxes or square Petri dishes with solid medium. Maize and soybean seeds were wetted 24 hours at room temperature prior to sowing in pots.
For the chemical activity assessment 3 to 8 seeds per well of Arabidopsis pSPX1::GUS line were sown in 96-well plates containing 150 μl of low phosphate modMS liquid medium containing 1% of sucrose. Compounds were added in 50 μM concentration, starting from a 5 mM stock of compounds solved in DMSO. Different chemical substances were separately added to different wells. Per plate, 16 control wells were used, 8 containing only the low phosphate medium and 1% DMSO, and 8 containing high phosphate medium and 1% DMSO. 7 days after germination, plates were scanned using a flatbed scanner (EPSON Expression 11000XL) and analyzed for leaf size. After scanning, the growth medium was replaced by GUS staining solution (see Plant Mol. Biol. Rep. 1994, 12: 37-42 for details) and incubated for 1.5 hours at 37° C. The plates were scanned a second time and analyzed for GUS signal area. Measurements of both leaf area and GUS signal area were conducted by filtering out and measure the green and blue signal, respectively using ImageJ software. If the green leaf area was 50% or less than the control, samples were omitted. Additionally, all results were visually screened for leaf size and GUS signal.
To identify new substances that suppress the expression of the SPX1 phosphate starvation biomarker, we used an Arabidopsis SPX1 reporter line pSPX1::GUS. […] This observation was confirmed in two experimental repeats.

For assay [2], the system named is maize cultivar DKC 2931. The experiment in a line: Regular maize pot experiment (potting soil). The assay is classed as in vivo. Particulars: low phosphate, 10 μM compound. The procedure: as §1
(§2) Regular Arabidopsis, soybean and maize pot experiments used an unfertilized potting soil, which was supplemented at the start of the experiment with 50 ml H2O containing 0.25 g/l NH4NO3 and 0.44 g/l (high phosphate) or no (maize and soybean) or 0.11 g/l KH2PO (Arabidopsis) for low phosphate conditions. For the sand-based maize pot experiment, sand was supplemented with 50 ml H2O containing 0.25 g/l NH4NO3 and 0.38 g/l (high phosphate) or 0.02 g/l (low phosphate) KH2PO4. Potassium was balanced via addition of KCl. Compound concentration was 10 μM, calculated based on the total water content after watering, and was added at the start of the experiment (Arabidopsis) or once a week (maize). Indexed chlorophyll contents were received via a SPAD 502 Plus Chlorophyll Meter. All parameters in the sand experiment, except the rate of leaf 4 (measured the first 4 days after emergence), were measured 19 days after sowing. Measurements in the pot experiments with potting soil were done after 4 weeks of growth, except for leaf 5, which was measured at 26 days. The long term maize pot experiment was performed on the automated Phenovision platform (see Mertens et al, 2021, https://doi.org/10.3389/fpls.2021.640914) with maize cultivars B104 and DKC2931. End point measurements occurred after 90 days (B104) or 70 days (DKC2931). Plants were grown on an unfertilized potting soil, which was fertilized bi-weekly with 50 mL modified Hoagland solution (2.5× concentrated; but with 0.25 mM KH2PO4).

Assay [3] deals with maize cultivar B104. The experiment in a line: Long term maize pot experiment, Phenovision platform, B104. Particulars: B104, end point after 90 days. The assay is classed as in vivo. The procedure: as §2
Assay [4] concerns Arabidopsis thaliana Columbia-0. In words: Root hair number and length quantification, Arabidopsis vertical plate. The assay is classed as in vivo. Particulars: for activity at 1 µM: 1 μM compound. The procedure: as §1
Roots were imaged using a stereomicroscope or a VHX-6000. Number and length of the root hairs parallel to the medium surface was determined at 4 to 6 mm above the root meristem. Root hair length was measured using the ImageJ software.

The test system of assay [5] is maize cultivar DKC2931. The experiment in a line: Long term maize pot experiment, Phenovision platform, DKC2931. The assay is classed as in vivo. Particulars: DKC2931, end point after 70 days. The procedure:
as §2

Assay [6] deals with Arabidopsis thaliana Columbia-0. The experiment in a line: Arabidopsis horizontal plate leaf area assay. The assay is classed as in vivo. Particulars: Arabidopsis horizontal plates (Table 4); control without compound 63. The procedure: as §1
Arabidopsis primary root growth experiments were done on MS1/2 on vertical standing plates and roots were measured 11 days after germination. Roots were imaged using a flatbed scanner (EPSON Expression 11000XL) and root length was measured using ImageJ software. Arabidopsis shoot biomass was determined in 11 days after germination and growth on vertical standing plates with modMS. Arabidopsis leaf area was measured 21 days after germination on horizontal plates with modMS medium. Plates were scanned from the top using a flatbed scanner (EPSON Expression 11000XL) and the visible leaf area was measured using ImageJ software. Rice plate experiments used vertically standing Petri dishes containing MS1/2 medium (low phosphate—0.001 mM) solidified with 0.8% washed agar. Plant height was measured 11 days after germination. Rice box experiments used modMS medium and a low phosphate condition of 0.025 mM phosphate. Plant height was measured 13 days after germination. All growth experiments occurred with 10 μM of compound and in low phosphate conditions, unless stated otherwise. Controls always received the same DMSO concentration.

Setting [7] is: Arabidopsis thaliana, read-out: Total root hair length per root (in % compared to the control).
Where [8] appears, read: Arabidopsis vertical plate, high phosphate.

Structures are written as SMILES.

As for `CCN(CCCN)c1ccccc1` [Example 2], the “GUS (SPX1) stained area normalized to the number of seeds” value (“GUS (SPX1) stained area normalized” for short) in assay [1] was found to be 21 pixels. In assay [2] (4 weeks), this compound gave a Plant height of 62 cm and a Shoot weight of 4.5 g. In assay [2] (26 days), the “Leaf 5” value is listed as 46 cm. Moreover, in assay [3], the Biomass is on record as 37 g, the Plant height turned out to be 719 mm, the “Plants with developed ears” value was 62% and the Sum of leaf length was determined as 6050 mm. Besides, the activity at 1 µM in assay [4] (setting [7]) came out at 886%. Besides, in assay [4] (setting [8]), the “Average root hair length per root in high phosphate conditions” value was found to be 0.28 mm, the “Root hair number in high phosphate conditions (one plane in 2 mm region)” value came to 8 and the “Total root hair length per root in high phosphate conditions” value amounted to 0.27 cm. For the same compound, in assay [5], the Biomass is given as 31 g, the Plant height was determined as 1010 mm, the “Plants with developed ears” value stood at 100% and the Sum of leaf length came to 3950 mm.
`NCCCNc1ccccc1` [Example 3] showed an Average leaf area in assay [6] of 69 mm^2.
Still for that read-out and setting: for `CN(CCCN)c1ccccc1` [Example 4] the value was 72 mm^2.
Same read-out and setting: next, `CCN(CCCNC)c1ccccc1` [Example 5]: 65 mm^2.
Take `CCN(CCCNC(=O)CNC(=O)c1cc(C)cc(C)c1)c1ccccc1` [Example 6]: the “GUS (SPX1) stained area normalized” value in assay [1] is listed as 8 pixels.
On to `CCN(C)c1ccccc1` [Example 9], for which the activity at 1 µM in assay [4] (setting [7]) came to 390%. For the same compound, in assay [4] (Arabidopsis thaliana, 3 μM compound, read-out: Total root hair length per root (in % compared to the control)), the activity at 3 µM worked out at 313%. The activity at 10 µM in assay [4] (Arabidopsis thaliana, 10 μM compound, read-out: Total root hair length per root (in % compared to the control)) stood at 758%.
In the case of `CN(CCCNC(=O)CSc1nnnn1-c1ccccc1)c1ccccc1` [Example 10], the “GUS (SPX1) stained area normalized” value in assay [1] is on record as 298 pixels.
Same read-out and setting: for `Cc1ccccc1-c1nnc(SCC(=O)NCCCN(C)c2ccccc2)n1C` [Example 11] the value was 800 pixels.
